{
  "source": "patent US20200121697A1",
  "about": "“METHODS FOR DIAGNOSING AND TREATING CACHEXIA” (Aurin Biotech Inc., priority 2017, published 2020)",
  "key": {"salivary TNFα": {"tested_on": "salivary TNFα", "test": "Salivary TNFα levels (ELISA) and cachexia symptoms in cachexic cancer patients under oral treatment", "type": "in vivo, human", "excerpt": "Endogenous TNFα production can be measured by ELISA. The data reported herein used the Peprotech human TNFα kit (catalog 900-T25) following directions of the manufacturer. Alternative ELISA methods, not relying on commercial manufacturers, could be employed. […] This standard curve was used to calculate TNFα production in various organs and in saliva as presented herein.\nThe stabilization step may involve known methods for stabilizing TNFα, such as those described by Lee et al. (2017), incorporated herein by reference.\nThe detection step is designed to treat the stabilized saliva sample with an TNFα antibody in such a way as to bind essentially all of the TNFα present in the sample. The detection step may involve an immunoassay, such as an ELISA test based on an antigen-antibody reaction using TNFα as the antigen to be measured. For example, the capture antibody may be a polyclonal antibody specific for TNFα. […] In some embodiments the second TNFα antibody may be a monoclonal antibody, such as a mouse monoclonal antibody. Biotin may then be bound to the monoclonal antibody or to a third IgG antibody to which biotin is bound. The biotin levels are detected by first treating with a streptavidin solution linked with horse radish peroxidase (HRP) followed by treatment with a tetramethylbenzidine solution to detect the HRP by reading the resulting color in a spectrophotometer. An ELISA standard concentration graph of target TNFα may be obtained, for example, by absorbance detection, fluorescence detection, luminescence detection, or electrochemical detection. […] Alternatively, the immunoassay may be performed by a method capable of directly or indirectly detecting TNFα. Examples of such alternative methods include MS (Mass Spectrometry), MS/MS, and liquid chromatography.\nThe invention can be further understood by reference to the following examples, which are provided by way of illustration and are not meant to be limiting. The examples are of human cancer cases that had become cachexic. The patients had salivary TNFα levels ranging from 405 to 462 pg/ml. The TNFα in these cases was restored to normal levels by treatment with DAS (4,4′-diacetoxy-1,1 biphenyl-3,3′ dicarboxylic acid) or APAC for 10-21 days. […] They also support the fact that complement is required for TNFα production."}, "TNFα [1]": {"tested_on": "TNFα", "test": "Binding of APAC and DAS to TNFα / TNFα peptide", "description": "(§1) A 12-mer peptide spot array was synthesized on a cellulose membrane using a Semi-automated AutoSpot robot (INTAVIS, USA) covering the 233 amino acid sequence of TNFα. A total of 112 peptides, each shifted by 2 amino acids were synthesized. The TNFα membrane was soaked in 50% methanol in 10 mM PBS (pH7.4) for 2 minutes, then washed twice with PBS. The membrane was then incubated with 1 mM of APAC or DAS in PBS (10 mM, pH7.4) for one hour at 37° C. After washing 3 times with PBS, positive images were captured with a SYPRO Ruby filter for APAC and an Alexa 680 filter for DAS by the Chemidoc MP imaging System (Bio-Rad, USA).\n(§2) A strongly positive peptide sequence was chosen for synthesis of a potential inhibitor of TNFα binding. The sequence of this TNFα-A2 peptide was NH3-YLGGVFQLEKGDRLSA-COOH. It was synthesized using a standard peptide Synthesizer (Liberty Blue, CEM Inc, USA) with Wang Resin and Fmoc amino acids (GL Biochem Ltd, Shanghai, CN). After synthesis, the peptide was purified by HPLC on a C18 column (Quadarupole 6110 LC/MS, Agilent Technology, USA) with a flow phase of 0.5% trifluroacetic acid (TFA) in acetonitrile to 0.05% TFA in H2O. The eluted peptide was detected by ultraviolet light (280 nm). The peptide inhibited binding of APAC to TNFα (FIG. 9) and of DAS to TNFα (FIG. 10)."}, "TNFα [2]": {"target": "TNFα (Homo sapiens, UniProt P01375)", "test": "Binding of APAC and DAS to TNFα / TNFα peptide", "details": "0-5 nmol/ml of DAS and 0-175 nmol/ml of TNFα peptide, FIG. 10", "description": "as §1, §2"}},
  "data": [
    {"compound": "NC(=O)NO", "note": "[hydroxyurea, reference compound]", "values": [
      {"measurement": "salivary TNFα level", "setting": "salivary TNFα; Example 1, terminal leukemia patient, ten days after APAC discontinued (155 pg/ml on Day 20) and hydroxyurea 500 mg×2/day begun", "result": 228, "unit": "pg/mL"}
    ]},
    {"compound": "TNFα-A2 peptide: synthesized TNFα sequence peptide NH3-YLGGVFQLEKGDRLSA-COOH (H-YLGGVFQLEKGDRLSA-OH)", "values": [
      {"measurement": "binding of APAC to TNFα in presence of the peptide", "setting": "TNFα [1]; FIG. 9", "result": "inhibited"},
      {"measurement": "binding of DAS to TNFα in presence of the peptide", "setting": "TNFα [1]; FIG. 10", "result": "inhibited"}
    ]},
    {"compound": "CC(=O)Oc1ccc(-c2ccc(OC(C)=O)c(C(=O)O)c2)cc1C(=O)O", "note": "[DAS, 4,4′-diacetoxy-1,1 biphenyl-3,3′ dicarboxylic acid]", "values": [
      {"measurement": "binding of DAS to a TNFα peptide as a function of the peptide concentration", "setting": "TNFα [2]", "result": "linear"},
      {"measurement": "symptoms of cachexia", "setting": "salivary TNFα; Example 4, peritoneal carcinomatosis patient, DAS 3×100 mg/day, Day 12", "result": "subsided"},
      {"measurement": "salivary TNFα level", "setting": "salivary TNFα; Example 4, peritoneal carcinomatosis patient, DAS 3×100 mg/day, nine days into treatment (Day 12)", "result": 161, "unit": "pg/mL"},
      {"measurement": "salivary TNFα level", "setting": "salivary TNFα; Example 4, person, stage IV peritoneal carcinomatosis and cachexia, 394 pg/ml Day 0, 406 pg/ml before start, DAS 3×100 mg/day, five days into treatment (Day 8)", "result": 288, "unit": "pg/mL"},
      {"measurement": "increased salivary TNFα levels of cachexic cancer patients", "setting": "salivary TNFα; oral intake", "result": "rapidly reduced to normal levels"},
      {"measurement": "elevated salivary TNFα over time", "setting": "salivary TNFα; patient with terminal colon cancer, FIG. 14", "result": "reversed"}
    ]}
  ]
}
